Results: patent US20180339016A1 (priority 2015, published 2018)
Where two headings read alike, the source gives them in different places.

Tested on: E. coli ATCC 25922
Assay: Antibiotic interaction assay (Wimley), 2/3 broth microdilution: MIC alone, MIC of combination, FICI
Format: cell-based
Details: for MIC of combination (μM): antibiotic: concentration of labelled drug in combination with KL-L9P; for FICI of drug with KL-L9P / FICIKL-L9P / FICIantibiotic: labelled drug + KL-L9P; for FICI of drug with colistin: labelled drug + colistin; for MIC of drug with 1 μM KL-L9P / dilution of MIC relative to drug alone: with 1 μM of KL-L9P
Procedure: Synergy was evaluated by an antibiotic interaction assay (Wimley, 2015) Using the method of Wimley (BBA, 2015, v. 1848(1), pp. 8-15), synergy between the membrane-activating peptide and an antibiotic was measured by an FICI value (FIG. 17). […] Thus, to accurately examine synergy, a ⅔ dilution method which observes MIC at denser concentration intervals is advantageous over a ½ dilution method in statistical terms. […] In the same manner, the MIC of an antibiotic or repositioning drug (second line) is measured. In the third line, the two compounds are mixed after putting half amount each, and the MIC thereof is measured.
A broth microdilution technique (⅔ dilution) was used together with an MH broth. E. coli treated with an antibiotic and the peptide was incubated in a 37° C. incubator for 18 hours.
To measure the synergy between the membrane-activating peptides and the repositioning drug, a 10× compound was prepared, and then serially diluted ⅔-fold with distilled water. An MH broth (900 μl) was added to and mixed with the 10× compound (100 μl), and then 200 μL of the mixture was taken and added to a 96-well plate. E. coli cultured for one day was adjusted to 0.5 MCF using MCFarland, and diluted 10-fold, and then 10 μl of the dilution was added to each well of the plate (5×10^5 CFU/mL). After addition of the bacterial cells, plate was incubated at 37° C. for 18 hours, and then the OD value at UV-Vis (600 nm) was measured. Cell viability (%)=(OD600 of sample−OD600 of negative control)/(OD600 of positive control−OD600 of negative control)×100.

[1] = Escherichia coli, ATCC25922, 18 h, drug alone, <20% growth of positive control, read-out: MIC of antibiotic
[2] = Escherichia coli, ATCC25922, 18 h, Tables 19-23, read-out: MIC (μM) against E. coli ATCC, 1 compound alone

In the case of CC(C)Cc1ccc([C@@H](C)C(=O)O)cc1 [(R)-ibuprofen], the MIC [1] is reported as 12000 µM, the “MIC of combination (μM): antibiotic” value is reported as 555.56 µM and the “FICI of drug with KL-L9P” value is reported as 0.27. It also gave an FICIKL-L9P of 0.23 and an FICIantibiotic of 0.05.

For CC(C)Cc1ccc([C@H](C)C(=O)O)cc1 [(S)-ibuprofen], the MIC [2] was 12000 µM, the MIC [1] was 12000 µM and the “MIC (μM) against E. coli ATCC, combination of two compounds” value (“MIC (μM) … of two compounds” for short) (KL-L9P + (S)-ibuprofen, concentration of labelled component) was 420 µM. For the same compound, the “MIC (μM) against E. coli ATCC, combination of 3 compounds” value (shortened to “MIC (μM) … of 3 compounds”) (KL-L9P + colistin + (S)-ibuprofen, concentration of labelled component) was 98 µM, the “MIC (μM) … of two compounds” value (colistin + (S)-ibuprofen, concentration of labelled component) was 830 µM and the “MIC of combination (μM): antibiotic” value was 416.67 µM. For the same compound, the “FICI of drug with KL-L9P” value was 0.23, the FICIKL-L9P was 0.20 and the FICIantibiotic was 0.03.

For N[C@@H]1CONC1=O [D-cycloserine], the “synergy with KL-L9P” value was “not synergistic”.

In the case of CC(=O)Nc1ccc(O)cc1 [acetaminophen], the “synergy with KL-L9P” value is reported as “not synergistic”.

For CC(=O)Oc1ccccc1C(=O)O [aspirin], the “synergy with KL-L9P” value was “not synergistic”, the MIC [1] was 519 µM and the “MIC of combination (μM): antibiotic” value was 479.17 µM. For the same compound, the “FICI of drug with KL-L9P” value was 1.59, the FICIKL-L9P was 0.66 and the FICIantibiotic was 0.92.

For CC(C)c1c(C(=O)Nc2ccccc2)c(-c2ccccc2)c(-c2ccc(F)cc2)n1CC[C@@H](O)C[C@@H](O)CC(=O)O [atorvastatin], the MIC [1] was over 500 µM, the “MIC of combination (μM): antibiotic” value was 166.67 µM and the “FICI of drug with KL-L9P” value was 0.60. For the same compound, the FICIKL-L9P was 0.38 and the FICIantibiotic was 0.22.

With COc1ccc2cc3[n+](cc2c1OC)CCc1cc2c(cc1-3)OCO2 [berberine] the “synergy with KL-L9P” value was “not synergistic”, the MIC [1] was 298 µM and the “MIC of combination (μM): antibiotic” value was 273.15 µM. The FICIKL-L9P was 0.53 and the FICIantibiotic was 0.92.

With O=C(O)c1cn(C2CC2)c2cc(N3CCNCC3)c(F)cc2c1=O [ciprofloxacin] the “synergy with KL-L9P” value was “not synergistic”.

With Cc1onc(-c2ccccc2Cl)c1C(=O)N[C@@H]1C(=O)N2[C@@H]1SC(C)(C)[C@@H]2C(=O)O [cloxacillin] the MIC [2] was 70 µM, the MIC [1] was 74.1 µM and the “MIC (μM) … of two compounds” value (KL-L9P + cloxacillin, concentration of labelled component) was 18 µM. For the same compound, the “MIC (μM) … of 3 compounds” value (KL-L9P + colistin + cloxacillin, concentration of labelled component) was 9.4 µM, the “MIC (μM) … of two compounds” value (colistin + cloxacillin, concentration of labelled component) was 38 µM and the “MIC of combination (μM): antibiotic” value was 17.78 µM. For the same compound, the FICIKL-L9P was 0.25, the FICIantibiotic was 0.24 and the “FICI of drug with colistin” value was “about 1”. For the same compound, the “MIC of drug with 1 μM KL-L9P” value was 0.3 µM and the “dilution of MIC relative to drug alone” value was 128 fold.

COc1cc(/C=C/C(=O)CC(=O)/C=C/c2ccc(O)c(OC)c2)ccc1O [curcumin] was tested, and the MIC [2] was 300 µM, the MIC [1] was 396 µM and the “MIC (μM) … of 3 compounds” value (KL-L9P + colistin + curcumin, concentration of labelled component) was 20 µM. The “MIC (μM) … of two compounds” value (KL-L9P + curcumin, concentration of labelled component) was 79 µM, the “MIC (μM) … of two compounds” value (colistin + curcumin, concentration of labelled component) was 83 µM and the “MIC of combination (μM): antibiotic” value was 78.70 µM. For the same compound, the “FICI of drug with KL-L9P” value was 0.30, the FICIKL-L9P was 0.10 and the FICIantibiotic was 0.20. The “MIC of drug with 1 μM KL-L9P” value was 4 µM and the “dilution of MIC relative to drug alone” value was “about 330 fold”.

CC(C)Cc1ccc(C(C)C(=O)O)cc1 (centres unmarked) [ibuprofen] was tested, and the “MIC of drug with 1 μM KL-L9P” value was 3 µM and the “dilution of MIC relative to drug alone” value was “about 3000 fold”.

CC(=O)NC[C@H]1CN(c2ccc(N3CCOCC3)c(F)c2)C(=O)O1 [linezolid] was tested, and the “lowering of MIC in combination KL-L9P/colistin/linezolid versus alone” value was 10 fold, the MIC [2] was 70 µM and the MIC [1] was 71.1 µM. The MIC (Escherichia coli, ATCC25922, Example 7, read-out: MIC when the three compounds were used alone) was 60 µM, the MIC (Escherichia coli, ATCC25922, linezolid alone, read-out: MIC of Linezolid) was 83 µM and the “MIC (μM) … of 3 compounds” value (KL-L9P + colistin + linezolid, concentration of labelled component) was 6.7 µM. The “MIC (μM) … of two compounds” value (KL-L9P + linezolid, concentration of labelled component) was 16 µM, the “MIC (μM) … of two compounds” value (colistin + linezolid, concentration of labelled component) was 36 µM and the “concentration killing E. coli in combination KL-L9P/colistin/linezolid” value (concentration of labelled component) was 6 µM. For the same compound, the “MIC of combination (μM): antibiotic” value was 15.80 µM, the FICIKL-L9P was 0.18 and the FICIantibiotic was 0.22. The “FICI of drug with colistin” value was “about 1”, the MIC (linezolid alone, read-out: MIC of Linezolid) was 59 µM and the “MIC of drug with 1 μM KL-L9P” value was 10 µM. The “dilution of MIC relative to drug alone” value was “about 16 fold”.

For CC[C@H](C)C(=O)O[C@H]1C[C@@H](C)C=C2C=C[C@H](C)[C@H](CC[C@@H]3C[C@@H](O)CC(=O)O3)[C@H]21 [lovastatin], the MIC [1] was over 500 µM, the “MIC of combination (μM): antibiotic” value was 74.07 µM and the “FICI of drug with KL-L9P” value was 0.24. It also gave an FICIKL-L9P of 0.14 and an FICIantibiotic of 0.10.

With O=c1c(O)c(-c2ccc(O)c(O)c2)oc2cc(O)cc(O)c12 [quercetin] the MIC [1] was 7500 µM, the “MIC of combination (μM): antibiotic” value was 108.39 µM and the “FICI of drug with KL-L9P” value was 0.35. The FICIKL-L9P was 0.33 and the FICIantibiotic was 0.01.
